IC50 data for seven compounds are collected here from patent US10604526B2, “Chemokine receptor modulators and uses thereof” (RAPT THERAPEUTICS, INC., priority 2016, dated 2020).

For this assay, the target named is T1, hCCR4 (Homo sapiens, UniProt P51679).
T1 sequence (P51679 1-360): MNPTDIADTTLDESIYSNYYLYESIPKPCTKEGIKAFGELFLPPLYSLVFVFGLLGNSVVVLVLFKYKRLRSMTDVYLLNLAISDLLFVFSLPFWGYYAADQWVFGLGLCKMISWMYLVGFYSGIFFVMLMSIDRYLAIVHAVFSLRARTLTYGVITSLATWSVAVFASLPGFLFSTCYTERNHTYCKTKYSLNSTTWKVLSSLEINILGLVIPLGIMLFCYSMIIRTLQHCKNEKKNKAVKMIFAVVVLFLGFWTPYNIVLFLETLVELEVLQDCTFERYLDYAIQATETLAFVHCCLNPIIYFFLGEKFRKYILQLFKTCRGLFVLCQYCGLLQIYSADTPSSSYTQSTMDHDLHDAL
Kind of assay: Calcium flux assay. The settings on record: Chem5-hCCR4 cells, CCL22 at EC80 of 1.5 nM, FLIPR Calcium 6 dye; read-out: Potency (IC50). Type of assay: cell-based. The method, then: Calcium Flux Assay. Compounds were evaluated in a calcium flux assay substantially performed as follows. Chem5-hCCR4 cells (EMD Millipore, Hayward, Calif.; HTS009C) were cultured under standard conditions and frozen in aliquots of 10×10^6 cells/mL. The day prior to compound testing, a vial was rapidly thawed and pipetted into 20 mL media (DMEM+10% FBS+1% Pen-Strep+1% L-glutamine). Cells were harvested by centrifugation and re-suspended in fresh culture medium. 25 μL of cell suspension was seeded into 384-well plates (Corning, Tewksbury, Mass.; CellBind with black wall/clear bottom). The plates were centrifuged at 300 g for 10 seconds and incubated overnight at 37° C. and 5% CO2. The day of compound testing, media was removed from the plates and 25 μL serum free media was added to each well. Plates were returned to the incubator for 2 h. 25 μL assay buffer (Hank's balanced salt solution+20 mM HEPES pH 7.4) containing FLIPR Calcium 6 dye (Molecular Devices, Sunnyvale, Calif.; # R8191) and probenecid (2.5 mM) was added to each well and incubated at 37° C. and 5% CO2 for 2 h. Compounds in DMSO were added to the plates using an HP D300e digital dispenser, and all wells were normalized to contain 0.25 μL (0.5%) DMSO. Plates were incubated for 1 hour at 37° C. and 5% CO2. CCL22 (Peprotech; Rockyhill, N.J.) was diluted in assay buffer containing 0.1% BSA to 7.5 nM (corresponding to 5×EC80 of 1.5 nM).
Assay plates and working solution of CCL22 were transferred to the FlexStation plate reader (Molecular Devices) at 37° C. for 5 min of equilibration. Fluorescence recordings at 485 excitation/525 emission were performed at 2.5 second intervals. At t=16 seconds, 12.5 μL of CCL22 solution was added to each well and reads continued for 30 seconds at 2.5 second intervals. The minimum fluorescence (Fmin) was calculated by averaging the reads prior to ligand addition and the change in fluorescence (ΔF) was calculated by subtracting the Fmin from the average of the reads following ligand addition. The response ΔF/Fmin was plotted as a function of the compound concentration and the IC50 values were determined by non-linear regression analysis using a 4-parameter fit in either PRISM software (GraphPad; La Jolla, Calif.) or Dotmatics Browser.
Usually IC50 stands for the point on the concentration scale where inhibition reaches its midpoint. As to “1-((R)-1-(2,4-Dichlorophenyl)ethyl)-6-(3-((S)-1-(2-hydroxyethyl)piperidin-3-yl)azetidin-1-yl)-1H-pyrazolo[3,4-b]pyrazine-3-carbonitrile and 1-((S)-1-(2,4-dichlorophenyl)ethyl)-6-(3-((S)-1-(2-hydroxyethyl)piperidin-3-yl)azetidin-1-yl)-1H-pyrazolo[3,4-b]pyrazine-3-carbonitrile [Example 34]”, the IC50 is less than 100 nM.

On to “1-((R)-1-(2,4-Dichlorophenyl)ethyl)-6-(3-((S)-1-(2-hydroxyethyl)piperidin-3-yl)azetidin-1-yl)-1H-pyrazolo[3,4-b]pyrazine-3-carboxamide and 1-((S)-1-(2,4-dichlorophenyl)ethyl)-6-(3-((S)-1-(2-hydroxyethyl)piperidin-3-yl)azetidin-1-yl)-1H-pyrazolo[3,4-b]pyrazine-3-carboxamide [Example 41]”, for which the IC50 is less than 100 nM.

“1-((R)-1-(2,4-dichlorophenyl)ethyl)-6-(3-((R)-1-((R)-4-hydroxybutan-2-yl)piperidin-3-yl)azetidin-1-yl)-1H-pyrazolo[3,4-b]pyrazine-3-carbonitrile and 1-((R)-1-(2,4-dichlorophenyl)ethyl)-6-(3-((R)-1-((S)-4-hydroxybutan-2-yl)piperidin-3-yl)azetidin-1-yl)-1H-pyrazolo[3,4-b]pyrazine-3-carbonitrile [Example 82]”: the IC50 is less than 100 nM.

On to “1-((R)-1-(2,4-dichlorophenyl)ethyl)-6-(3-((S)-1-((R)-4-hydroxybutan-2-yl)piperidin-3-yl)azetidin-1-yl)-1H-pyrazolo[3,4-b]pyrazine-3-carbonitrile and 1-((R)-1-(2,4-dichlorophenyl)ethyl)-6-(3-((S)-1-((S)-4-hydroxybutan-2-yl)piperidin-3-yl)azetidin-1-yl)-1H-pyrazolo[3,4-b]pyrazine-3-carbonitrile [Example 83]”, for which the IC50 was 100 to 500 nM.

For the compound “4-((S)-3-(1-(1-((R)-1-(2,4-Dichlorophenyl)ethyl)-3-methyl-1H-pyrazolo[3,4-b]pyrazin-6-yl)azetidin-3-yl)piperidin-1-yl)butanoic acid and 4-((R)-3-(1-(1-((R)-1-(2,4-dichlorophenyl)ethyl)-3-methyl-1H-pyrazolo[3,4-b]pyrazin-6-yl)azetidin-3-yl)piperidin-1-yl)butanoic acid [Example 17]”, the IC50 was less than 100 nM.

In the case of “4-((S)-3-(1-(1-((R)-1-(2,4-Dichlorophenyl)ethyl)-3-methyl-1H-pyrazolo[3,4-d]pyrimidin-6-yl)azetidin-3-yl)piperidin-1-yl)butanoic acid and 4-((R)-3-(1-(1-((R)-1-(2,4-dichlorophenyl)ethyl)-3-methyl-1H-pyrazolo[3,4-d]pyrimidin-6-yl)azetidin-3-yl)piperidin-1-yl)butanoic acid [Example 20]”, the half-maximal inhibitory concentration (IC50) was 100 to 500 nM.

Regarding `CCOC(=O)CN1CCCC(C2CN(c3cnc4c(C)nn([C@H](C)c5ccc(Cl)cc5Cl)c4n3)C2)C1` (mixture of isomers) [Example 1, Ethyl 2-((R)-3-(1-(1-((R)-1-(2,4-dichlorophenyl)ethyl)-3-methyl-1H-pyrazolo[3,4-b]pyrazin-6-yl)azetidin-3-yl)piperidin-1-yl)acetate 2,2,2-trifluoroacetate and 2,2,2-trifluoroacetate ethyl 2-((S)-3-(1-(1-((R)-1-(2,4-dichlorophenyl)ethyl)-3-methyl-1H-pyrazolo[3,4-b]pyrazin-6-yl)azetidin-3-yl)piperidin-1-yl)acetate], the 50% inhibitory concentration (IC50) is greater than 500 nM.
